Experimental data published in ChEMBL document CHEMBL1201862, “PubChem BioAssay data set” (2004).
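The compound was tested at five concentrations on cells cultured in 96-well plates, with a 48-hour exposure period. GI50: concentration for 50% inhibition of growth.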 Active and inactive are the calls of the source. Rule as the data show it: active = GI50 up to about 1.1 µM and inactive = higher.

What was measured:
Test in all cases: growth of human tumour cells (NCI), 48 h
A498 = system: A498
BT-549 = system: BT-549
CAKI-1 = system: CAKI-1
DU-145 = system: DU-145
HCC 2998 = system: HCC 2998
HL-60 = system: HL-60
IGROV-1 = system: IGROV-1
M14 = system: M14
MOLT-4 = system: MOLT-4
NCI-H226 = system: NCI-H226
OVCAR-3 = system: OVCAR-3
OVCAR-5 = system: OVCAR-5
RXF 393 = system: RXF 393
SF-539 = system: SF-539
SK-MEL-28 = system: SK-MEL-28
SNB-75 = system: SNB-75
SW-620 = system: SW-620
UACC-257 = system: UACC-257
UO-31 = system: UO-31
OVCAR-8 = system: OVCAR-8

SMILES	GI50 (A498)	GI50 (BT-549)	GI50 (CAKI-1)	GI50 (DU-145)	GI50 (HCC 2998)	GI50 (HL-60)	GI50 (IGROV-1)	GI50 (M14)	GI50 (MOLT-4)	GI50 (NCI-H226)	GI50 (OVCAR-3)	GI50 (OVCAR-5)	GI50 (RXF 393)	GI50 (SF-539)	GI50 (SK-MEL-28)	GI50 (SNB-75)	GI50 (SW-620)	GI50 (UACC-257)	GI50 (UO-31)	GI50 (OVCAR-8)
CC1=C(N2CC2)C(=O)C(CO)=C(N2CC2)C1=O	0.0575 µM (active)	0.13 µM (active)	< 0.01 µM (active)	< 0.01 µM (active)	0.0378 µM (active)	< 0.01 µM (active)	0.0112 µM (active)	0.0111 µM (active)	0.0129 µM (active)	0.0506 µM (active)	0.0203 µM (active)	0.067 µM (active)	0.0231 µM (active)	< 0.0123 µM (active)	0.0711 µM (active)	0.031 µM (active)	0.0123 µM (active)	0.0923 µM (active)	0.0101 µM (active)	
C(CCc1nnc2c(n1)CCCC2)Cc1nnc2c(n1)CCCC2	> 100 µM (inactive)	> 100 µM (inactive)	> 100 µM (inactive)	> 100 µM (inactive)	> 100 µM (inactive)	> 100 µM (inactive)	> 100 µM (inactive)	> 100 µM (inactive)	> 100 µM (inactive)	> 100 µM (inactive)	> 100 µM (inactive)	> 100 µM (inactive)	> 100 µM (inactive)	> 100 µM (inactive)	> 100 µM (inactive)	> 100 µM (inactive)	> 100 µM (inactive)		> 100 µM (inactive)	> 100 µM (inactive)
COC(C)(C)[C@@H](O)[C@H]1C[C@H](C)[C@@]2(CC[C@]3(C)[C@@H]2CC[C@@H]2[C@@]4(C)CC[C@@H](OC(C)=O)C(C)(C)[C@@H]4C[C@@H](OC4OC(COC(C)=O)C(O)C(O)C4O)[C@]23C)O1 (some centres undefined)	6.41 µM (inactive)	4.86 µM (inactive)	8.43 µM (inactive)	4.37 µM (inactive)	0.662 µM (active)	2.1 µM (inactive)	4.39 µM (inactive)	4.8 µM (inactive)	2.32 µM (inactive)	4.75 µM (inactive)	4.26 µM (inactive)	2.54 µM (inactive)	4.1 µM (inactive)	10.1 µM (inactive)	7.57 µM (inactive)	4.46 µM (inactive)	6.81 µM (inactive)	6.44 µM (inactive)	4.67 µM (inactive)	5.33 µM (inactive)
CC(C)(Cl)C(Cl)CC/C(CBr)=C(\Cl)CBr (centres undefined)	19.2 µM (inactive)	1.75 µM (inactive)	2.62 µM (inactive)	7.5 µM (inactive)	9.68 µM (inactive)	0.32 µM (active)	1.66 µM (inactive)	1.6 µM (inactive)	0.473 µM (active)	1.79 µM (inactive)	2.64 µM (inactive)	2.29 µM (inactive)	1.53 µM (inactive)	2.4 µM (inactive)	2.03 µM (inactive)	2.23 µM (inactive)	1.6 µM (inactive)	2.08 µM (inactive)	3.08 µM (inactive)	1.95 µM (inactive)
CCC/C(Cl)=N\OC(=O)Nc1ccc(OC(F)(F)F)cc1	23.8 µM (inactive)	20.9 µM (inactive)	1.66 µM (inactive)	18 µM (inactive)	19.5 µM (inactive)	3.25 µM (inactive)	6.93 µM (inactive)	6.52 µM (inactive)	1.86 µM (inactive)	15.6 µM (inactive)	11.3 µM (inactive)	19.6 µM (inactive)	16 µM (inactive)	16.7 µM (inactive)	19.6 µM (inactive)	15.6 µM (inactive)	2.53 µM (inactive)	19.6 µM (inactive)	8.53 µM (inactive)	16.7 µM (inactive)
C(=C\c1nccs1)/c1cccc(/C=C/c2nccs2)n1	> 50 µM (inactive)	> 50 µM (inactive)	> 50 µM (inactive)	> 50 µM (inactive)	27.7 µM (inactive)	> 50 µM (inactive)	26.5 µM (inactive)	> 50 µM (inactive)	38.4 µM (inactive)	> 50 µM (inactive)	> 50 µM (inactive)	> 50 µM (inactive)	> 50 µM (inactive)	> 50 µM (inactive)	> 50 µM (inactive)	22 µM (inactive)	> 50 µM (inactive)	> 50 µM (inactive)	> 50 µM (inactive)	47.9 µM (inactive)
O=Cc1cc(O)c(O)c(/C=N/n2c3ccccc3c3ccccc32)c1	15.9 µM (inactive)	2.31 µM (inactive)	16.1 µM (inactive)	11.4 µM (inactive)	11.7 µM (inactive)	2.33 µM (inactive)		6.1 µM (inactive)	2.54 µM (inactive)	12.6 µM (inactive)	2.44 µM (inactive)	17.9 µM (inactive)	5.57 µM (inactive)	6.38 µM (inactive)	12.9 µM (inactive)	2.65 µM (inactive)	5.15 µM (inactive)	11.7 µM (inactive)	5.58 µM (inactive)	2.63 µM (inactive)
C=C1NC(=O)C(CC(C(=O)C(=O)Nc2c(C)cccc2C(C)(C)C)C(=O)c2ccc3ccccc3c2)C(=O)N1 (centres undefined)	> 100 µM (inactive)	> 100 µM (inactive)	> 100 µM (inactive)	> 100 µM (inactive)	> 100 µM (inactive)	> 100 µM (inactive)		> 100 µM (inactive)	> 100 µM (inactive)	> 100 µM (inactive)	> 100 µM (inactive)	> 100 µM (inactive)	> 100 µM (inactive)	> 100 µM (inactive)	> 100 µM (inactive)	> 100 µM (inactive)	> 100 µM (inactive)	> 100 µM (inactive)	> 100 µM (inactive)	> 100 µM (inactive)
CC(C)Cc1ccc(C(C)/C=C2\CCC(CN3CCOCC3)C2=O)cc1 (centres undefined)	12.5 µM (inactive)	17.9 µM (inactive)	18 µM (inactive)	13.7 µM (inactive)	11.6 µM (inactive)	2.69 µM (inactive)	7.71 µM (inactive)	5.02 µM (inactive)	1.64 µM (inactive)	20.3 µM (inactive)	4.1 µM (inactive)	20.7 µM (inactive)	8.43 µM (inactive)	12.5 µM (inactive)	9.12 µM (inactive)	8.34 µM (inactive)	3 µM (inactive)	7.14 µM (inactive)	8.73 µM (inactive)	3.61 µM (inactive)
C=CCn1c(-c2ccc([N+](=O)[O-])cc2)cs/c1=N\C(P(=O)(O)O)P(=O)(O)O	> 100 µM (inactive)	> 100 µM (inactive)	> 100 µM (inactive)	> 100 µM (inactive)	> 100 µM (inactive)	0.0383 µM (active)	> 100 µM (inactive)	> 100 µM (inactive)	> 100 µM (inactive)	> 100 µM (inactive)	> 100 µM (inactive)	> 100 µM (inactive)	> 100 µM (inactive)	> 100 µM (inactive)	> 100 µM (inactive)	> 100 µM (inactive)	> 100 µM (inactive)	> 100 µM (inactive)	> 100 µM (inactive)	> 100 µM (inactive)
CC(=O)NNC(=S)N/C=C1/C(=O)Oc2ccccc2C1=O	> 100 µM (inactive)	> 100 µM (inactive)	> 100 µM (inactive)	> 100 µM (inactive)	> 100 µM (inactive)	> 100 µM (inactive)	> 100 µM (inactive)	> 100 µM (inactive)	> 100 µM (inactive)	> 100 µM (inactive)	> 100 µM (inactive)	> 100 µM (inactive)	0.0703 µM (active)	> 100 µM (inactive)	> 100 µM (inactive)	> 100 µM (inactive)	> 100 µM (inactive)	> 100 µM (inactive)	> 100 µM (inactive)	> 100 µM (inactive)
CC1(C)OC[C@@H](O)[C@H](C#N)CO1	> 100 µM (inactive)	> 100 µM (inactive)	> 100 µM (inactive)	> 100 µM (inactive)	> 100 µM (inactive)	> 100 µM (inactive)		> 100 µM (inactive)	> 100 µM (inactive)	> 100 µM (inactive)	> 100 µM (inactive)	> 100 µM (inactive)	> 100 µM (inactive)	> 100 µM (inactive)	> 100 µM (inactive)	> 100 µM (inactive)	> 100 µM (inactive)	> 100 µM (inactive)	> 100 µM (inactive)	> 100 µM (inactive)
O=C(c1ccccc1)c1c2ccccn2c2cccc[n+]12	71.8 µM (inactive)	> 100 µM (inactive)	> 100 µM (inactive)	> 100 µM (inactive)	> 100 µM (inactive)	79.6 µM (inactive)	> 100 µM (inactive)	> 100 µM (inactive)	> 100 µM (inactive)	> 100 µM (inactive)	> 100 µM (inactive)	> 100 µM (inactive)	> 100 µM (inactive)	> 100 µM (inactive)	> 100 µM (inactive)	> 100 µM (inactive)	> 100 µM (inactive)	> 100 µM (inactive)		88.5 µM (inactive)
CC(C)(C)c1ccc(S(=O)(=O)N2C(c3cccc(C4CC[C@@H](C(=O)O)N4S(=O)(=O)c4ccc(C(C)(C)C)cc4)c3)CC[C@H]2C(=O)O)cc1 (some centres undefined)	> 100 µM (inactive)	50 µM (inactive)	42.5 µM (inactive)	75.3 µM (inactive)	47.4 µM (inactive)	43.5 µM (inactive)	33.5 µM (inactive)	54.1 µM (inactive)	33 µM (inactive)	71.9 µM (inactive)	28 µM (inactive)	> 100 µM (inactive)	30.1 µM (inactive)	87.3 µM (inactive)	> 100 µM (inactive)	> 100 µM (inactive)	69.3 µM (inactive)	53 µM (inactive)	33.5 µM (inactive)	67.5 µM (inactive)
